Measured values as given in PMC7782785, “Outer-membrane-acting peptides and lipid II-targeting antibiotics cooperatively kill Gram-negative pathogens” (Communications Biology, 2021).

How the values were obtained:
Type in all cases: cell-based
[1] = tested on: K. pneumoniae ATCC700603; assay: Synergy test, checkerboard broth microdilution
Protocol: For the synergy test, standard checkerboard broth microdilution assays were conducted to test the synergistic effect of combined antimicrobials using the same condition as before[51],[56]. […] The initial concentration of both peptides was their individual MIC. 50 µL fresh bacterial suspension prepared as above was added to the wells already containing the antimicrobial compound mixture to achieve 100 µL final volume per well.
The fractional inhibitory concentration (FIC) indices[57] were calculated using the formula FICI = FICa + FICb = MICac/MICa + MICbc/MICb, to determine whether the combination is additive, synergistic or antagonistic[51],[57]. The MICa and MICb is the MIC of compound A or B alone, respectively. MICac is the MIC of compound A in combination with compound B and MICbc is the MIC of compound B when it was combined with compound A. The FIC corresponds to the MIC of a compound in combination with the other compound, divided by the MIC of the compound alone. FICa is FIC of compound A while FICb is FIC of compound B. The FICI was interpreted according to EUCAST[58] as follows: synergistic, FICI ≤ 0.5; additive,0.5 < FICI ≤ 1; indifferent, 1 < FICI < 2; antagonistic, FICI ≥ 2.

[2] = tested on: five Gram-negative strains; assay: Bactericidal effect testing; settings: 10-fold MIC (alone or in combination), CAMHB, 37 °C, 3 h, plating on LB agar; no colonies of any of the five strains
Protocol: After that, 50 µL of a 10^3-fold diluted sample were plated on LB agar[59].

[3] = tested on: K. pneumoniae LMG 20218; assay: Antimicrobial activity in blood (ex vivo bacteremia model); settings: human blood, 10^8 CFU/mL inoculum, 37 °C, alone or (combination) with 4 µM D-11, triplicate
Protocol: Briefly, blood from healthy donors was obtained from Sanquin (certified Dutch organization responsible for meeting the need in healthcare for blood and blood products, https://www.sanquin.nl/) and infected with 10^8 CFU/mL of K. pneumoniae LMG 20218. […] At 1, 2, 4, and 6 h 100 µL samples were taken from each one of the tubes and decimal serially diluted in PBS. Drops of 10 µL of each one of the dilutions were spotted on LB agar medium to follow the development of the infection. The experiment was performed in triplicate. Non-infected blood, infected blood, and blood plus peptide were used as a control.

SMILES: CN[C@H](CC(C)C)C(=O)N[C@H]1C(=O)N[C@@H](CC(N)=O)C(=O)N[C@H]2C(=O)N[C@H]3C(=O)N[C@H](C(=O)N[C@H](C(=O)O)c4cc(O)cc(O)c4-c4cc3ccc4O)[C@H](O)c3ccc(c(Cl)c3)Oc3cc2cc(c3O[C@@H]2O[C@H](CO)[C@@H](O)[C@H](O)[C@H]2O[C@H]2C[C@](C)(N)[C@H](O)[C@H](C)O2)Oc2ccc(cc2Cl)[C@H]1O [Vancomycin]
- MICAB: MIC of vancomycin in combination with D-11 at the MICAC concentration [1]: 11.04 µM
- bactericidal effect [2]: bactericidal
- bacterial count in infected whole blood after 6 h ([3]; vancomycin 2 µM): 10^12 CFU/mL
- bacterial count in infected whole blood after 6 h ([3]; vancomycin 4 µM): 10^12 CFU/mL
- bacterial count in infected whole blood after 6 h ([3]; vancomycin 8 µM): 10^12 CFU/mL
- bacterial count in infected whole blood after 6 h ([3]; vancomycin 16 µM): 10^10 CFU/mL
